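Following 48 hours of exposure in 96-well plates, responses at five concentrations were used to interpolate endpoints linearly. The concentration for full growth arrest is given as TGI.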
Tests used:
Test in all cases: NCI tumour cell line growth inhibition, 48 h
786-0 renal = system: 786-0 renal
NCI-H522 lung = system: NCI-H522 lung
COLO 205 colon = system: COLO 205 colon
HCT-15 colon = system: HCT-15 colon
IGROV1 ovarian = system: IGROV1 ovarian

SMILES	TGI (786-0 renal) [µM]	TGI (NCI-H522 lung) [µM]	TGI (COLO 205 colon) [µM]	TGI (HCT-15 colon) [µM]	TGI (IGROV1 ovarian) [µM]
O=C1C2=Cc3ccccc3CCN2c2ccc([N+](=O)[O-])cc21	> 100	> 100	> 100	> 100	> 100
Brc1ccc(C2(N3CCCCC3)CCCCC2)s1	> 100	> 100			> 100
c1ncc(C23C4C5C6C4C2C6C53)[nH]1 (stereo not drawn)	> 100		> 100	> 100	> 100
CCOC(=O)c1c(C)n(-c2ccc(C)cc2)c2c1cc(O)c1[nH]c3c(c12)CCCC3	37.1	27.4	> 100	> 100	33.9
COC(=O)/C=C1/OC(c2ccccc2)=CC1=O	27.9	39.3	29.5	30.1	33.9
COc1ccc([N+](=O)[O-])cc1[I+]c1cc([N+](=O)[O-])ccc1OC	> 100	> 100	> 100	> 100	> 100
COC(=O)[C@H]1[C@H](OC(=O)[C@@H](OC)c2ccccc2)ON2CC[C@@H](OC(=O)c3ccccc3)[C@H]12	> 100	7.59	> 100	> 100	> 100
[N-]=[N+]=NC1=C(N=[N+]=[N-])c2cccc3cccc(c23)C1=O	> 100	> 100	> 100	> 100	> 100
COc1cc(O)c2c(=O)cc(C3(OC(C)=O)C=CC(OC4OC(CO)C(O)C(O)C4O)C=C3)oc2c1 (stereo not drawn)	> 100	> 100	> 100	> 100	> 100
CCOC(=O)/C(C#N)=N\Nc1ccc(-n2c(C)nc3ccc(Br)cc3c2=O)cc1	> 100		> 100	> 100	> 100
Cc1ccc(NC(=O)c2cc(S(=O)(=O)N3CCNNC3=O)c(S)cc2Cl)cc1	> 100	> 100	> 100	> 100	> 100
Cc1ccc2c(c1)C(=O)c1ccc(C)nc1C2=O	> 100	82.1	> 100	39	83.2
O=C(CC(C(=O)c1ccsc1)c1cccs1)c1ccsc1 (stereo not drawn)	> 100		> 100	> 100	> 100
CCOC(=O)C(NC(=O)Nc1ccccc1F)(OC)C(F)(F)F (stereo not drawn)	> 100		> 100	> 100	> 100
O=c1[nH]nc(Cc2ccc(Cl)cc2)n1Nc1ccccc1	> 100		> 100	> 100	> 100
CCCCC[C@H]1CC=CC(=O)O1	13.3	11.8	15.1	20.9	27.3
ClCc1nc2cc(Cl)ccc2o1	3.34	3.37	9	16.7	3.29
COC(=O)[C@@H](COC(=O)/C=C/c1ccc(OC(C)=O)c(OC(C)=O)c1)NC(=O)/C=C/c1ccc(OC(C)=O)c(OC(C)=O)c1	73.7	35.1	35.3	91.4	> 100
CC1C2CC(CC2=O)C1(C)C (stereo not drawn)	> 100	> 100	> 100		> 100
CSC(=S)Nc1cc(C)ccn1	> 100	> 100	> 100	> 100	58
COc1ccc(C(c2ccccc2)N2C(=O)CCC2C(=O)O)cc1OC (stereo not drawn)	> 100	> 100	> 100	> 100	> 100
CCOC(=O)CC(=O)Nc1c(C(=O)OCC)sc2nc(SC)nc(Nc3ccc(OC)c(OC)c3)c12	37	34.1	> 100	> 100	> 100

SMILES	TGI (786-0 renal) [µM]	TGI (NCI-H522 lung) [µM]	TGI (COLO 205 colon) [µM]	TGI (HCT-15 colon) [µM]	TGI (IGROV1 ovarian) [µM]
CN(N=O)C(N)=NC(=O)c1ccccc1	> 100	> 100	> 100	> 100	> 100
Cc1oc2nc(N(C)C)n3c(C)nnc3c2c1C	> 100	> 100	> 100	> 100	> 100
c1ccc2c(-c3ccnc(-c4c[nH]c5ccccc45)n3)c[nH]c2c1	4.6		> 100	> 100	14.7
CC(=O)/C(=C\n1c(=S)[nH]c2ccc([N+](=O)[O-])cc21)C(=O)Nc1ccccc1C	> 100	> 100	> 100	> 100	> 100
CC(=O)N(CCc1ccccc1)C(C)(C#N)c1ccccc1 (stereo not drawn)	> 100	> 100	> 100	> 100	> 100
NC(=S)NS(=O)(=O)c1ccc(F)cc1	> 100	> 100	> 100	> 100	> 100
COC(=O)/C=C(\S/C(=C(/c1ccccc1)n1cc(C(=O)OC)c(C(=O)OC)n1)c1ccccc1)C(=O)OC	> 100		4.09	29	31.9
C[C@H]1ON2CCC[C@@H]2[C@@H]1C(=O)N1C2CC3CCC2(CS1(=O)=O)C3(C)C (stereo partly drawn)	> 100	> 100	> 100	> 100	> 100
CSc1nc2ccccc2c(=O)n1-c1cccc(C)c1	> 100	> 100	> 100	> 100	> 100
CCCNc1c(Cl)cc(Cl)c2[nH]c3ccccc3c(=O)c12	> 100	> 100	> 100	> 100	> 100
COC(=O)C(NC(=O)C12CCC(C)(C(=O)O1)C2(C)C)c1cc(C(C)(C)C)c(O)c(C(C)(C)C)c1 (stereo not drawn)	> 100	> 100	> 100	> 100	> 100
CCC1c2[nH]c3ccccc3c2C[C@H]2C(=O)NC(Cc3ccccc3)C(=O)N12 (stereo partly drawn)	> 100	46.6	39	> 100	74.7
CC1=NN(c2ccccc2Cl)C2(C1)SCC(=O)N2c1nc2ccccc2s1 (stereo not drawn)	> 100	> 100	> 100	> 100	> 100
O=C(N/N=C1\CCc2ccccc21)N/N=C1\CCc2ccccc21	> 100	> 100	> 100	> 100	> 100
CCC/C(Cl)=N/OC(=O)Nc1cccc(F)c1	3.2	1.05	3.98	4.1	27.5
CCCN=C1S/C(=C/c2ccc(OC)c(OC)c2)C(=O)N1c1ccccc1	50.2	> 100	> 100	> 100	> 100
O=Cc1cc(O)ccc1Br	> 78.3	> 94.3	> 100	40.7	> 100
O=C(O)c1ccccc1/C=C1\Cc2ccc3c(c2C1=O)CCCC3	> 100	65.9	> 100	> 100	> 100
Nc1nc(SCC(=O)c2ccccc2)nc2nc3c(c(-c4ccccc4)c12)CCCC3	56.1	> 100		> 100	
Nc1nc(Cl)cc(NCC2(CO)CC(O)C2)n1 (stereo not drawn)	> 100	> 100	> 100	> 100	> 100
COc1cc([C@@H]2c3cc4c(cc3[C@@H](N=Cc3ccc(C(=O)O[C@H]5C[C@H]6OC[C@@]6(OC(C)=O)[C@H]6[C@H](OC(=O)c7ccccc7)[C@]7(O)C[C@H](OC(=O)[C@H](OC(=O)c8ccc(C=N[C@@H]9c%10cc%11c(cc%10[C@@H](c%10cc(OC)c(O)c(OC)c%10)[C@H]%10C(=O)OC[C@@H]%109)OCO%11)cc8)[C@@H](NC(=O)c8ccccc8)c8ccccc8)C(C)=C([C@@H](OC(C)=O)C(=O)[C@]56C)C7(C)C)cc3)C3COC(=O)C32)OCO4)cc(C)c1O (stereo partly drawn)	> 50	> 50	> 50	> 50	> 50
COc1cccc2c(=O)c3c(O)c4cc(N(C)C)ccc4c(OC(C)=O)c3oc12	24		17.8	25.3	

SMILES	TGI (786-0 renal) [µM]	TGI (NCI-H522 lung) [µM]	TGI (COLO 205 colon) [µM]	TGI (HCT-15 colon) [µM]	TGI (IGROV1 ovarian) [µM]
c1ccc(NC2(c3nnnn3C3CCCCC3)CCNCC2)cc1	28.6		40.9	51.6	> 100
COc1ccc(N=C/C=C/C(=C/COC(C)=O)OC(C)=O)cc1	90	30.4	73.5	> 100	45.1
COc1cc(/C=C2\N=C(c3ccccc3)N(/N=C/c3cc4cc(C)ccc4nc3Cl)C2=O)ccc1O	> 100		> 100	> 100	> 100
CC1(c2nc3ccccc3[nH]2)CCC(CO)C(C)(C)O1 (stereo not drawn)	> 100	> 100	> 100	> 100	> 100
O=[N+]([O-])c1ccc2nc(/C=C(\O)c3ccccc3)c(/C=C(\O)c3ccc(Cl)cc3)nc2c1	> 100	79.7	> 100	> 100	> 100
COC(=O)C1(Cc2ccccc2C)Cc2ccc(C)cc2C1=O (stereo not drawn)	> 100	65.9	38.1	> 100	> 100
O=C(CN1c2ccccc2Sc2ccccc21)n1cnc2ccccc21	> 100		> 100	> 100	> 100
N#Cc1c(-c2ccccc2)cc(Nc2ccc(F)cc2)n2c1nc1ccccc12	10	5.83	2.97	> 30.4	> 100
N/C(=N/O)c1cn(C2OC(CO)C(O)C2O)c2ncnc(NO)c12 (stereo not drawn)	> 100	0.392	0.623	> 100	> 51
CC1(C)O[C@@H]([C@@H](O)[C@H](O)C2SCCCS2)[C@@H](CO)O1	> 100	> 100	> 100	> 100	> 100
CC(=O)Nc1ccccc1S(=O)(=O)c1c(-c2c(C)c(Cl)c(C)c(Cl)c2C)noc1C	40.6	> 100	> 100	> 100	> 100
COc1ccc(OC)c(CC(=O)c2ccc(O)c(C(=O)NCCc3ccc(F)cc3)c2)c1	24.5	11.2	31.7	17.1	18.1
c1cc(-c2ccc(Oc3ccc(-c4ccncc4)cc3)cc2)ccn1	> 100	> 79.4	18.7	96.9	> 100
COC(=O)c1c(OC(C)=O)ccc2c1c1c(n2Cc2ccccc2)C(=O)c2ccccc2C1=O	52.4	46.6	30.5	41.9	50.4
C=CCSC1=N/C(=C\c2ccco2)C(=O)N1CC=C	> 100	> 100	> 100	> 100	> 100
C[N+](C)(C)C(Cc1c[nH]c(=S)[nH]1)C(=O)O (stereo not drawn)	> 100	> 100	> 100	> 100	> 100
CCOC(=O)c1cc(NC(=O)c2ccccc2)c(=O)n2c(cc3c(Cl)cccc32)c1O	> 100	> 100	> 100	> 100	> 100
COc1ccc2c(c1)CC[C@@H]1C2CC[C@]2(C)C(=O)N(C)C(=O)CC12 (stereo partly drawn)	> 100	> 100	> 100		> 100
Cc1c(/C=N\NC(=S)N(C)CCN(C)C(=S)N/N=C\c2c(C)n(C)n(-c3ccccc3)c2=O)c(=O)n(-c2ccccc2)n1C	> 100	> 100	> 100	> 100	
CN(Cc1cnc2nc(N)nc(N)c2n1)c1ccc(C(=O)NC2CCCCC2)cc1	> 100		> 100	> 100	45.6
CSc1ccc(C=C2N=C(c3ccccc3)N(c3cc(C(=O)c4ccccc4)ccc3N3C(=O)/C(=C/c4ccc(SC)cc4)N=C3c3ccccc3)C2=O)cc1	> 100		> 100	> 100	> 100
CC(=O)NC1C(OCc2ccccc2)OC(CO)C(O)C1OCC(=O)NC(C)C(=O)NC(CCC(=O)Nc1ccc2c(c1)CN1C(=O)c3ccccc3C1=N2)C(N)=O (stereo not drawn)	> 100		> 100	> 100	> 100

From PubChem BioAssay (NCI)
